Results taken from patent US20120010164A1, “ANTIVIRAL AGENTS” (priority 2009, published 2012).

Legend:
[1] = Cellular toxicity counterscreen (CC50); assay type: cell-based; conditions: human, HuH-7 hepatoma cells
Experimental: The compounds of the present invention were also evaluated for cellular toxicity and anti-viral specificity in the counterscreens described below.

[2] = system: subgenomic HCV Replicon in hepatoma (HuH-7) cells; test: Assay for inhibition of HCV RNA replication (replicon, in situ ribonuclease protection SPA); assay type: cell-based; conditions: Hepatitis C virus, HuH-7 replicon cells, activity ranges
Experimental: The compounds of the present invention were also evaluated for their ability to affect the replication of Hepatitis C Virus RNA in cultured hepatoma (HuH-7) cells containing a subgenomic HCV Replicon. The details of the assay are described below. This Replicon assay is a modification of that described in V. Lohmann, F. Korner, J-O. Koch, U. Herian, L. Theilmann, and R. Bartenschlager, “Replication of a Sub-genomic Hepatitis C Virus RNAs in a Hepatoma Cell Line,” Science 285:110 (1999).
The assay was an in situ Ribonuclease protection, Scintillation Proximity based-plate assay (SPA). 10,000-40,000 cells were plated in 100-200 μL of media containing 0.8 mg/mL G418 in 96-well cytostar plates (Amersham). Compounds were added to cells at various concentrations up to 100 μM in 1% DMSO at time 0 to 18 h and then cultured for 24-96 h. Cells were fixed (20 min, 10% formalin), permeabilized (20 min, 0.25% Triton X-100/PBS) and hybridized (overnight, 50° C.) with a single-stranded ^33P RNA probe complementary to the (+) strand NS5B (or other genes) contained in the RNA viral genome. Cells were washed, treated with RNAse, washed, heated to 65° C. and counted in a Top-Count Inhibition of replication was read as a decrease in counts per minute (cpm).
Human HuH-7 hepatoma cells, which were selected to contain a subgenomic replicon, carry a cytoplasmic RNA consisting of an HCV 5′ non-translated region (NTR), a neomycin selectable marker, an EMCV IRES (internal ribosome entry site), and HCV non-structural proteins NS3 through NS5B, followed by the 3′ NTR.

SMILES	CC50 [1] [µM]	EC50 [2] [µM]
[N-]=[N+]=N[C@]1(CO)O[C@@H](n2ccc3c(N)ncnc32)[C@@H](F)[C@@H]1O [Example 1, 7-(4-azido-2-deoxy-2-fluoro-β-D-arabinofuranosyl)-7H-pyrrolo[2,3-d]pyrimidin-4-amine]	> 100	< 20
[N-]=[N+]=N[C@]1(CO)O[C@@H](n2cc(F)c3c(N)ncnc32)[C@@H](F)[C@@H]1O [Example 2, 7-(4-azido-2-deoxy-2-fluoro-β-D-arabinofuranosyl)-5-fluoro-7H-pyrrolo[2,3-d]pyrimidin-4-amine]	> 100	20 to 100
[N-]=[N+]=N[C@]1(CO)OC(n2cnc3c(N)ncnc32)[C@@H](F)[C@@H]1O (stereo partly drawn) [Example 3, 9-(4-azido-2-deoxy-2-fluoro-b-D-arabinofuranosyl)-9H-purin-6-amine]	> 100	> 100
